Structures are written as SMILES. Where only a bound is given, the exact number is not on record here.

As for `CC(C)n1nc(-c2cnc(N)nc2-c2ccc(Cl)c(Cl)c2)ccc1=O` [Example 50, 6-[2-Amino-4-(3,4-dichlorophenyl)-5-pyrimidinyl]-2-isopropyl-3(2H)-pyridazinone], the melting point was determined as 176 °C. The value for `COc1ccc(-c2nc(N)ncc2-c2ccc(=O)n(C(C)C)n2)cc1OC` [Example 51, 6-[2-Amino-4-(3,4-dimethoxyphenyl)-5-pyrimidinyl]-2-isopropyl-3(2H)-pyridazinone] was 167 °C; that for `CC(C)n1nc(-c2cnc(N)nc2-c2cccnc2)ccc1=O` [Example 52, 6-[2-Amino-4-(3-pyridinyl)-5-pyrimidinyl]-2-isopropyl-3(2H)-pyridazinone] was 204 °C. Regarding `CC(C)n1nc(-c2cnc(N)nc2-c2ccncc2)ccc1=O` [Example 53, 6-[2-Amino-4-(4-pyridinyl)-5-pyrimidinyl]-2-isopropyl-3(2H)-pyridazinone], the melting point is 219 °C.

Molecule `CC(C)n1nc(-c2cnc(N)nc2-c2cccs2)ccc1=O` [Example 55, 6-(2-Amino-4-(2-thienyl)-5-pyrimidinyl]-2-isopropyl-3(2H)-pyridazinone] showed a melting point of 213 °C.

`Cc1ccccc1-c1nc(N)ncc1-c1ccc(=O)n(C(C)C)n1` [Example 56, 6-[2-Amino-4-(2-methylphenyl)-5-pyrimidinyl]-2-isopropyl-3(2H)-pyridazinone] yielded a melting point of 203 °C. The value for `Cc1cccc(-c2nc(N)ncc2-c2ccc(=O)n(C(C)C)n2)c1` [Example 57, 6-[2-Amino-4-(3-methylphenyl)-5-pyrimidinyl]-2-isopropyl-3(2H)-pyridazinone] was 198 °C; that for `COc1ccccc1-c1nc(N)ncc1-c1ccc(=O)n(C(C)C)n1` [Example 58, 6-[2-Amino-4-(2-methoxyphenyl)-5-pyrimidinyl]-2-isopropyl-3(2H)-pyridazinone] was 170 °C. Molecule `COc1cccc(-c2nc(N)ncc2-c2ccc(=O)n(C(C)C)n2)c1` [Example 59, 6-[2-Amino-4-(3-methoxyphenyl)-5-pyrimidinyl]-2-isopropyl-3(2H)-pyridazinone] came in with a melting point of 211 °C. With `COc1ccc(-c2nc(N)ncc2-c2ccc(=O)n(C)n2)cc1` [Example 60, 6-[2-Amino-4-(4-methoxyphenyl)-5-pyrimidinyl]-2-methyl-3(2H)-pyridazinone], the melting point came out at 259 °C. The value for `Cn1nc(-c2cnc(N)nc2-c2ccc(Cl)cc2)ccc1=O` [Example 61, 6-[2-Amino-4-(4-chlorophenyl)-5-pyrimidinyl]-2-methyl-3(2H)-pyridazinone] was 264 °C. The result for `Cn1nc(-c2cnc(N)nc2-c2cccc(F)c2)ccc1=O` [Example 62, 6-[2-Amino-4-(3-fluorophenyl)-5-pyrimidinyl]-2-methyl-3(2H)-pyridazinone] reads 212.5 °C; that for `COc1ccc(-c2nc(N)ncc2-c2ccc(=O)n(C)n2)cc1F` [Example 63, 6-(2-Amino-4-(3-fluoro-4-methoxyphenyl)-5-pyrimidinyl]-2-methyl-3(2H)-pyridazinone], 245 °C; that for `Cn1nc(-c2cnc(N)nc2-c2ccco2)ccc1=O` [Example 64, 6-[2-Amino-4-(2-furyl)-5-pyrimidinyl]-2-methyl-3(2H)-pyridazinone], 234 °C. For the molecule `Cc1ccc(-c2nc(N)ncc2-c2ccc(=O)n(C)n2)cc1` [Example 65, 6-[2-Amino-4-(4-methylphenyl)-5-pyrimidinyl]-2-methyl-3(2H)-pyridazinone], the melting point was determined as 230 °C. `Cn1nc(-c2cnc(N)nc2-c2ccc(F)c(F)c2)ccc1=O` [Example 66, 6-[2-Amino-4-(3,4-difluorophenyl)-5-pyrimidinyl]-2-methyl-3(2H)-pyridazinone]: the melting point was 231 °C.

The molecule `COc1ccc(-c2nc(N)ncc2-c2ccc(=O)n(C)n2)cc1OC` [Example 67, 6-[2-Amino-4-(3,4-dimethoxyphenyl)-5-pyrimidinyl]-2-methyl-3(2H)-pyridazinone] yielded a melting point of 232 °C.

On to `Cn1nc(-c2cnc(N)nc2-c2ccc(Cl)c(Cl)c2)ccc1=O` [Example 68, 6-[2-Amino-4-(3,4-dichlorophenyl)-5-pyrimidinyl]-2-methyl-3(2H)-pyridazinone], for which the melting point worked out at 238 °C.

`Cn1nc(-c2cnc(N)nc2-c2cccs2)ccc1=O` [Example 69, 6-[2-Amino-4-(2-thienyl)-5-pyrimidinyl]-2-methyl-3(2H)-pyridazinone] came in with a melting point of 270 °C. The molecule `Cc1ccccc1-c1nc(N)ncc1-c1ccc(=O)n(C)n1` [Example 70, 6-[2-Amino-4-(2-methylphenyl)-5-pyrimidinyl]-2-methyl-3(2H)-pyridazinone] yielded a melting point of 229 °C. The result for `Cc1cccc(-c2nc(N)ncc2-c2ccc(=O)n(C)n2)c1` [Example 71, 6-[2-Amino-4-(3-methylphenyl)-5-pyrimidinyl]-2-methyl-3(2H)-pyridazinone] reads 214 °C. `COc1ccccc1-c1nc(N)ncc1-c1ccc(=O)n(C)n1` [Example 72, 6-[2-Amino-4-(2-methoxyphenyl)-5-pyrimidinyl]-2-methyl-3(2H)-pyridazinone] displayed a melting point of 225 °C. For `COc1cccc(-c2nc(N)ncc2-c2ccc(=O)n(C)n2)c1` [Example 73, 6-[2-Amino-4-(3-methoxyphenyl)-5-pyrimidinyl]-2-methyl-3(2H)-pyridazinone], the melting point came out at 195 °C.

`Cn1nc(-c2cnc(N)nc2-c2ccccc2Br)ccc1=O` [Example 74, 6-[2-Amino-4-(2-bromophenyl)-5-pyrimidinyl]-2-methyl-3(2H)-pyridazinone]: the melting point was over 250 °C. In turn, `CSc1nc(N)nc(-c2ccccc2)c1-c1ccc(=O)n(C(C)C)n1` [Example 78, 6-[2-amino-4-(methylthio)-6-phenyl-5-pyrimidinyl]-2-isopropyl-3(2H)-pyridazinone] displayed a melting point of 221 to 222 °C. Take `CC(C)n1nc(-c2c(-c3ccccc3)nc(N)nc2[S+](C)[O-])ccc1=O` (stereo not shown) [Example 79, 6-[2-amino-4-(methylsulfinyl)-6-phenyl-5-pyrimidinyl]-2-isopropyl-3(2H)-pyridazinone]: the melting point fell in the range of 225 to 227 °C. `CC(C)n1nc(-c2c(-c3ccccc3)nc(N)nc2S(C)(=O)=O)ccc1=O` [Example 79, 6-[2-amino-4-(methylsulfonyl)-6-phenyl-5-pyrimidinyl]-2-isopropyl-3(2H)-pyridazinone] returned a melting point of 210 to 211 °C.

Turning to `COc1nc(N)nc(-c2ccccc2)c1-c1ccc(=O)n(C(C)C)n1` [Example 80, 6-(2-amino-4-methoxy-6-phenyl-5-pyrimidinyl)-2-isopropyl-3(2H)-pyridazinone], the melting point lay in the range of 230 to 233 °C. The value for `CCOc1nc(N)nc(-c2ccccc2)c1-c1ccc(=O)n(C(C)C)n1` [Example 81, 6-(2-amino-4-ethoxy-6-phenyl-5-pyrimidinyl)-2-isopropyl-3(2H)-pyridazinone] was 187.5 to 188.5 °C; that for `CC(C)Oc1nc(N)nc(-c2ccccc2)c1-c1ccc(=O)n(C(C)C)n1` [Example 82, 6-(2-Amino-4-isopropoxy-6-phenyl-5-pyrimidinyl)-2-isopropyl-3(2H)-pyridazinone] was 176.5 to 177.5 °C.

`CC(C)n1nc(-c2c(OC3CCC3)nc(N)nc2-c2ccccc2)ccc1=O` [Example 83, 6-[2-Amino-4-(cyclobutyloxy)-6-phenyl-5-pyrimidinyl]-2-isopropyl-3(2H)-pyridazinone]: the melting point lay in the range of 161 to 162.5 °C. In the case of `C=CCOc1nc(N)nc(-c2ccccc2)c1-c1ccc(=O)n(C(C)C)n1` [Example 84, 6-[4-(Allyloxy)-2-amino-6-phenyl-5-pyrimidinyl]-2-isopropyl-3(2H)-pyridazinone], the melting point was in the range of 130.5 to 132.5 °C. The value for `C#CCOc1nc(N)nc(-c2ccccc2)c1-c1ccc(=O)n(C(C)C)n1` [Example 85, 6-[2-amino-4-phenyl-6-(2-propynyloxy)-5-pyrimidinyl]-2-isopropyl-3(2H)-pyridazinone] was 145 to 146.6 °C; that for `CC(C)n1nc(-c2c(OCCO)nc(N)nc2-c2ccccc2)ccc1=O` [Example 86, 6-[2-Amino-4-(2-hydroxyethoxy)-6-phenyl-5-pyrimidinyl]-2-isopropyl-3(2H)-pyridazinone] was 182 to 183 °C. In turn, `COCCOc1nc(N)nc(-c2ccccc2)c1-c1ccc(=O)n(C(C)C)n1` [Example 87, 6-[2-Amino-4-(2-methoxyethoxy)-6-phenyl-5-pyrimidinyl]-2-isopropyl-3(2H)-pyridazinone] gave a melting point of 128 to 130 °C. In turn, `CC(C)n1nc(-c2c(OCCN(C)C)nc(N)nc2-c2ccccc2)ccc1=O` [Example 88, 6-{2-Amino-4-[2-(dimethylamino)ethoxy]-6-phenyl-5-pyrimidinyl}-2-isopropyl-3(2H)-pyridazinone] gave a melting point of 130 to 131.5 °C.

`COC(=O)COc1nc(N)nc(-c2ccccc2)c1-c1ccc(=O)n(C(C)C)n1` [Example 89, methyl {[2-amino-5-(1-isopropyl-6-oxo-1,6-dihydro-3-pyridazinyl)-6-phenyl-4-pyrimidinyl]oxy}acetate] registered a melting point of 150 to 152.5 °C. Molecule `CC(C)n1nc(-c2c(OCCN3C(=O)c4ccccc4C3=O)nc(N)nc2-c2ccccc2)ccc1=O` [Example 90, 2-(2-{[2-Amino-5-(1-isopropyl-6-oxo-1,6-dihydro-3-pyridazinyl)-6-phenyl-4-pyrimidinyl]oxy}-ethyl)-1H-isoindole-1,3(2H)-dione] came in with a melting point of 231.5 to 232.5 °C.

Molecule `CCCOc1nc(N)nc(-c2ccccc2)c1-c1ccc(=O)n(C(C)C)n1` [Example 91, 6-(2-amino-4-phenyl-6-propoxy-5-pyrimidinyl)-2-isopropyl-3(2H)-pyridazinone] showed a melting point of 127.5 to 129 °C. `CC(C)n1nc(-c2c(OCCF)nc(N)nc2-c2ccccc2)ccc1=O` [Example 92, 6-[2-Amino-4-(2-fluoroethoxy)-6-phenyl-5-pyrimidinyl]-2-isopropyl-3(2H)-pyridazinone] had a melting point of 129 to 130.5 °C.

The record behind these values is patent publication US20050043315A1, “Aminopyrimidine compounds, processes for their preparation and pharmaceutical compositions containing them” (priority 2002, published 2005).
